Experimental data as given in article PMC4956214, “Identification of Host Insulin Binding Sites on Schistosoma japonicum Insulin Receptors” (PLoS ONE, 2016).

Molecular target: T1, human insulin (Homo sapiens, UniProt P01308)
T1 construct: human insulin was biotinylated using a NHS-PEO4-biotin kit; biotin (chemical label, NHS-PEO4-biotin)
Assay: Octet RED insulin binding assay (biotinylated human insulin on streptavidin biosensors)
Conditions: Octet RED binding assays

T1 sequence (P01308 25-54 limits assumed): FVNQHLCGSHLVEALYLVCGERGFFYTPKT
T1 sequence (P01308 90-110 limits assumed): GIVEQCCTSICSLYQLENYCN

Row | Sequence | Specific binding to human insulin
1 | IPRDASLPFLKEVTGSLLVYDTEGPEDL [Analogue 14, peptide analogue from SjIR-2 L1] | no specific binding
2 | ILPVIVDEVVSLKSDTVG [Analogue 18, peptide analogue from SjIR-2 FnIII-2] | no specific binding
3 | HEPKCHKVIEPITN [Analogue 8, peptide analogue from SjIR-1 FnIII-1] | no specific binding
4 | AYLIWIRILEDNPSEY [Analogue 16, peptide analogue from SjIR-2 FnIII-1] | no specific binding
5 | IGIDESESIIETIC [Analogue 7, peptide analogue from SjIR-1 FnIII-1] | no specific binding
6 | GSLIIENGNCSGDLSTLLPNLTVIRNQVI [Analogue 2, peptide analogue from SjIR-1 L1 domain] | no specific binding
